US20230286919A1, “ISOQUINOLINE DERIVATIVES FOR USE IN THERAPY” (Vestlandets Innovasjonsselskap AS, priority 2020, published 2023)

How the values were obtained:
[1] = biological target: JAK3 (Homo sapiens, UniProt P52333); test: SelectScreen biochemical kinase profiling, JAK3; settings: JAK3, cell free; read-out: Enzyme inhibitory activity IC50
Experimental: (§1) The in vitro kinase inhibitory assays in the presence of compounds 323-1 and 323-2 were carried out according to the Z′-LYTE™ Screening and LanthaScreen Eu Kinase Binding Assays Experimental Procedures in Invitrogen (ThermoFisher Scientific, Waltham, Mass., USA). For the Z′-LYTE™ Screening profiling for FRAP1 (mTOR), JAK3, and LTK (TYK1), a mixture containing the test compounds in 100% DMSO, 2.4 μL Kinase buffer (50 mM HEPES pH 7.5, 0.01% BRIJ-35, 10 mM MgCl2, 1 mM EGTA), 5 μL 2× Peptide/Kinase Mixture, 2.5 μL 4×ATP Solution were added into black 384-well low volume NBS and bar-coded corning plate (Corning Cat. #4514) and shake the plate for 30 seconds. After incubation at RT for 60 min, 5 μL Development Reagent Solution was added into plate and shake the plate for 30 seconds, followed by Development Reaction incubation at RT for 60 min. Read on fluorescence plate reader and analyze the data. […]
(§2) Inhibition by compounds 323-1 and 323-2 of MAP2K4 (MEK4) and TGFBR1 (ALK5) was determined by […]. Inhibition by compounds 323-1 and 323-2 of FRAP1 (mTOR), JAK3, and LTK (TYK1) was determined by […] using the Adapta Universal Kinase Assay (Life Technologies). […]

[2] = biological target: LTK (TYK1) (Homo sapiens, UniProt P29376); test: SelectScreen biochemical kinase profiling, LTK (TYK1); settings: cell free, read-out: Enzyme inhibitory activity IC50
Experimental: as §1, §2

[3] = biological target: TGFBR1 (ALK5) (Homo sapiens, UniProt P36897); test: SelectScreen kinase profiling, TGFBR1 (ALK5); format: binding; settings: cell free, read-out: Enzyme inhibitory activity IC50
Sequence of TGFBR1 (ALK5) (P36897 34-503): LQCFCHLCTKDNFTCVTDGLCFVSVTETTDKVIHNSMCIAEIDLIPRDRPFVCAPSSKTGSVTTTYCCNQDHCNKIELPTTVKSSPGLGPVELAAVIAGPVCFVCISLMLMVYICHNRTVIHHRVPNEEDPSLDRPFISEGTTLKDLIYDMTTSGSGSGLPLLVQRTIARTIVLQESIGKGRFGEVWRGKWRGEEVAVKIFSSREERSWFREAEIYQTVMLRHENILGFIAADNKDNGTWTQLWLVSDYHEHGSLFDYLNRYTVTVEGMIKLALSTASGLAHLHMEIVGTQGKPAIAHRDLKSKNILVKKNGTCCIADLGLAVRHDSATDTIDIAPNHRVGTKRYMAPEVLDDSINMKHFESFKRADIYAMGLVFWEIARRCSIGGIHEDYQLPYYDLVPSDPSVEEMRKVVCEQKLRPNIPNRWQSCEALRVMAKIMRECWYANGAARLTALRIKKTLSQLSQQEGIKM
Experimental: as §1, §2

[4] = biological target: MAP2K4 (MEK4) (Homo sapiens, UniProt P45985); test: SelectScreen kinase profiling, MAP2K4 (MEK4); format: binding; settings: cell free, read-out: Enzyme inhibitory activity IC50
Sequence of MAP2K4 (MEK4) (P45985 whole entry): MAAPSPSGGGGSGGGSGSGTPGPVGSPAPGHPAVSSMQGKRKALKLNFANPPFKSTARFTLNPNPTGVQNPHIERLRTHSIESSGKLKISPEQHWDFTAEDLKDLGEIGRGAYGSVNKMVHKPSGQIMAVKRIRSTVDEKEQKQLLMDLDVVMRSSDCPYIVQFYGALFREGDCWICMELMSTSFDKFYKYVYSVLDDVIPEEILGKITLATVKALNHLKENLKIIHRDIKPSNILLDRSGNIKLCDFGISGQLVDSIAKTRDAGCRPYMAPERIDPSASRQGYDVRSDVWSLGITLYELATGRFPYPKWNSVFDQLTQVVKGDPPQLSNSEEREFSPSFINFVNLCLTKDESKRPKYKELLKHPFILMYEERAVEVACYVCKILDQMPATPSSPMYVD
Experimental: as §1, §2

[5] = biological target: AKT1 (PKB alpha) (Homo sapiens, UniProt P31749); test: SelectScreen kinase profiling, AKT1; format: biochemical; settings: read-out: Enzyme inhibitory activity IC50
[6] = biological target: AKT2 (PKB beta) (Homo sapiens, UniProt P31751); test: SelectScreen kinase profiling, AKT2; format: biochemical; settings: read-out: Enzyme inhibitory activity IC50
[7] = biological target: EGFR (ErbB1) (Homo sapiens, UniProt P00533); test: SelectScreen kinase profiling, EGFR; format: biochemical; settings: read-out: Enzyme inhibitory activity IC50
[8] = biological target: ERBB2 (HER2) (Homo sapiens, UniProt P04626); test: SelectScreen kinase profiling, ERBB2; format: biochemical; settings: read-out: Enzyme inhibitory activity IC50
[9] = biological target: ERBB4 (HER4) (Homo sapiens, UniProt Q15303); test: SelectScreen kinase profiling, ERBB4; format: biochemical; settings: read-out: Enzyme inhibitory activity IC50
Sequence of ERBB4 (HER4) (Q15303 26-1308): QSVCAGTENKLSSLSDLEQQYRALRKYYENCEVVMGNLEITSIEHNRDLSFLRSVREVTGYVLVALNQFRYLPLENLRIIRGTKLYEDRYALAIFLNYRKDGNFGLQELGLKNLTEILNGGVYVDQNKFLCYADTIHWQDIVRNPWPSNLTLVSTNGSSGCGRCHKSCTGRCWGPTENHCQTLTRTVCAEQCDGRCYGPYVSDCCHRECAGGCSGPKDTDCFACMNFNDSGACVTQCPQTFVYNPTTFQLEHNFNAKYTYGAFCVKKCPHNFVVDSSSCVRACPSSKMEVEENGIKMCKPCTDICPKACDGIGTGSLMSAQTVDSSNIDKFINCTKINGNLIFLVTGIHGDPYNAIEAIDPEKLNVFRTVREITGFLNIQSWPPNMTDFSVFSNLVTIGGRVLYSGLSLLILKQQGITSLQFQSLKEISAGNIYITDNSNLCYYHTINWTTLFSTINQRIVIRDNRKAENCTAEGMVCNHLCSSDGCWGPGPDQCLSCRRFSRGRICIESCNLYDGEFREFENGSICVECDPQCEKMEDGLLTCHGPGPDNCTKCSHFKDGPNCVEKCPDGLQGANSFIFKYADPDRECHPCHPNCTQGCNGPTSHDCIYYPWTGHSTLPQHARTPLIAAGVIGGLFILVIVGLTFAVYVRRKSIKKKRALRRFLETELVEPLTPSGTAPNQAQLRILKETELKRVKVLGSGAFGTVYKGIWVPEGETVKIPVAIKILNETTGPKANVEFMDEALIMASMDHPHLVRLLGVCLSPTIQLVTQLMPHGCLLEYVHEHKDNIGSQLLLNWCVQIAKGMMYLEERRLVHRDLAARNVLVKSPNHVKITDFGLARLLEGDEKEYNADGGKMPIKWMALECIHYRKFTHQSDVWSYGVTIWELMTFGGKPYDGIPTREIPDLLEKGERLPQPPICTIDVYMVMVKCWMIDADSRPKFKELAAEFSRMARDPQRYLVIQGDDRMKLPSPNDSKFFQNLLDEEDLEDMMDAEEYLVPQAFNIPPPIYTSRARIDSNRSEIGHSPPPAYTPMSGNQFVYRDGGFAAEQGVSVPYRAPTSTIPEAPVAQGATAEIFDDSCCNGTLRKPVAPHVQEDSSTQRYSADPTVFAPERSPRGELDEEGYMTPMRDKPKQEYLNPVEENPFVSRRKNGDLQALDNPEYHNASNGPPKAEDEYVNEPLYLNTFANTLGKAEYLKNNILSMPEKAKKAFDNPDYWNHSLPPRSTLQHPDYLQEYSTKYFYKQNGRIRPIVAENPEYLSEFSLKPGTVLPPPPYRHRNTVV

[10] = biological target: FGFR1 (Homo sapiens, UniProt P11362); test: SelectScreen kinase profiling, FGFR1; format: biochemical; settings: read-out: Enzyme inhibitory activity IC50
[11] = biological target: FGFR3 (Homo sapiens, UniProt P22607); test: SelectScreen kinase profiling, FGFR3; format: biochemical; settings: read-out: Enzyme inhibitory activity IC50
[12] = biological target: FGFR4 (Homo sapiens, UniProt P22455); test: SelectScreen kinase profiling, FGFR4; format: biochemical; settings: read-out: Enzyme inhibitory activity IC50
[13] = biological target: FLT4 (VEGFR3) (Homo sapiens, UniProt P35916); test: SelectScreen kinase profiling, FLT4; format: biochemical; settings: read-out: Enzyme inhibitory activity IC50
Sequence of FLT4 (VEGFR3) (P35916 25-1363): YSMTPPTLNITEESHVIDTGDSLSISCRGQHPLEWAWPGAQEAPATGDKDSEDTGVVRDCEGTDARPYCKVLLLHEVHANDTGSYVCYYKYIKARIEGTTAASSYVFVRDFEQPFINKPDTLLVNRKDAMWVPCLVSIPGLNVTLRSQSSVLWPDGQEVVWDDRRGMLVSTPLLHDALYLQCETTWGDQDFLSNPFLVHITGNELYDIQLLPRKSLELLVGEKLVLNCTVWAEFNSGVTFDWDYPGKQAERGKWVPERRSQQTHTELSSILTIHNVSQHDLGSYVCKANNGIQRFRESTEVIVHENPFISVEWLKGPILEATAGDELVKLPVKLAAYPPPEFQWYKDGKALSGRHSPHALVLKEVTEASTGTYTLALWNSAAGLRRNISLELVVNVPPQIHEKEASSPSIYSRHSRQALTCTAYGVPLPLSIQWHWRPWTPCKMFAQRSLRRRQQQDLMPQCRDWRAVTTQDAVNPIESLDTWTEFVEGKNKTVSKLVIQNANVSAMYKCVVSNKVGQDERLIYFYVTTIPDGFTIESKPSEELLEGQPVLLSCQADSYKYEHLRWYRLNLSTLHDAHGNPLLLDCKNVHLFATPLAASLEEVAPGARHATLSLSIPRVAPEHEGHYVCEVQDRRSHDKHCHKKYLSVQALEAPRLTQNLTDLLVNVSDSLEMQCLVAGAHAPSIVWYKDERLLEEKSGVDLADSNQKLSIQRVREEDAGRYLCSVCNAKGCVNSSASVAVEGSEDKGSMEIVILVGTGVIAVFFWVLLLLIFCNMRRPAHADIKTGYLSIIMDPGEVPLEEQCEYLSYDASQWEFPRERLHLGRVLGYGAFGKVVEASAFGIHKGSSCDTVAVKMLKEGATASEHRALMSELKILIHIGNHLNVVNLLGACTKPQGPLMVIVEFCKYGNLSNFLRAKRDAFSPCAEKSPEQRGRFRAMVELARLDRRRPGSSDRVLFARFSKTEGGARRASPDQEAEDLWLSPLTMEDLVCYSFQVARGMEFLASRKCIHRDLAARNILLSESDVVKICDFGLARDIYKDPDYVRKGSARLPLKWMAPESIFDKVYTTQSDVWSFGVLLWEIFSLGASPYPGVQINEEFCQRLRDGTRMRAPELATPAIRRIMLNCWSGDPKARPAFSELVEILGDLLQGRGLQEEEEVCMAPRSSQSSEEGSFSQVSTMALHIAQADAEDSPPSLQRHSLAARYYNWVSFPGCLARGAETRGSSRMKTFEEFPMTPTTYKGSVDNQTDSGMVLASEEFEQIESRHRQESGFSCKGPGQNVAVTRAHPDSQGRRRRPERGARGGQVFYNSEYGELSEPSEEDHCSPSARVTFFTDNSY

[14] = biological target: HCK (Homo sapiens, UniProt P08631); test: SelectScreen kinase profiling, HCK; format: biochemical; settings: read-out: Enzyme inhibitory activity IC50
[15] = biological target: JAK1 (Homo sapiens, UniProt P23458); test: SelectScreen kinase profiling, JAK1; format: biochemical; settings: read-out: Enzyme inhibitory activity IC50
[16] = biological target: JAK2 (Homo sapiens, UniProt O60674); test: SelectScreen kinase profiling, JAK2; format: biochemical; settings: read-out: Enzyme inhibitory activity IC50
[17] = biological target: KDR (VEGFR2) (Homo sapiens, UniProt P35968); test: SelectScreen kinase profiling, KDR; format: biochemical; settings: read-out: Enzyme inhibitory activity IC50
[18] = biological target: LYN A (Homo sapiens, UniProt P07948); test: SelectScreen kinase profiling, LYN A; format: biochemical; settings: read-out: Enzyme inhibitory activity IC50
Sequence of LYN A (P07948 whole entry): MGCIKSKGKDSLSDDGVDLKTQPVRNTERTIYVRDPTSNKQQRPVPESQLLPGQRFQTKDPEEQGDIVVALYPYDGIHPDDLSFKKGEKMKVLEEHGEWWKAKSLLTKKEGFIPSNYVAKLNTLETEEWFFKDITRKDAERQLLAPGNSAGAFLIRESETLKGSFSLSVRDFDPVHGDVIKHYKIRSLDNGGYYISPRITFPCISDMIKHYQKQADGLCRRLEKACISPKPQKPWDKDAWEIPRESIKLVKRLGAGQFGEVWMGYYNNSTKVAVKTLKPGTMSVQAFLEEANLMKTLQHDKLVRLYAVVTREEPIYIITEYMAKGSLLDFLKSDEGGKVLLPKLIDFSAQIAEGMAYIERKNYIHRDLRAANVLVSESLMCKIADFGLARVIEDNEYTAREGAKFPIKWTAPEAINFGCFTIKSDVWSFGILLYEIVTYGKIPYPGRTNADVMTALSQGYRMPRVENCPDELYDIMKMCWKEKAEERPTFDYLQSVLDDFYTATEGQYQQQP

[19] = biological target: LYN B (Homo sapiens, UniProt P07948); test: SelectScreen kinase profiling, LYN B; format: biochemical; settings: read-out: Enzyme inhibitory activity IC50
[20] = biological target: MAPK10 (JNK3) (Homo sapiens, UniProt P53779); test: SelectScreen kinase profiling, MAPK10; format: biochemical; settings: read-out: Enzyme inhibitory activity IC50
[21] = biological target: PDGFRB (PDGFR beta) (Homo sapiens, UniProt P09619); test: SelectScreen kinase profiling, PDGFRB; format: biochemical; settings: read-out: Enzyme inhibitory activity IC50
[22] = biological target: PRKCD (PKC delta) (Homo sapiens, UniProt Q05655); test: SelectScreen kinase profiling, PRKCD; format: biochemical; settings: read-out: Enzyme inhibitory activity IC50
Sequence of PRKCD (PKC delta) (Q05655 whole entry): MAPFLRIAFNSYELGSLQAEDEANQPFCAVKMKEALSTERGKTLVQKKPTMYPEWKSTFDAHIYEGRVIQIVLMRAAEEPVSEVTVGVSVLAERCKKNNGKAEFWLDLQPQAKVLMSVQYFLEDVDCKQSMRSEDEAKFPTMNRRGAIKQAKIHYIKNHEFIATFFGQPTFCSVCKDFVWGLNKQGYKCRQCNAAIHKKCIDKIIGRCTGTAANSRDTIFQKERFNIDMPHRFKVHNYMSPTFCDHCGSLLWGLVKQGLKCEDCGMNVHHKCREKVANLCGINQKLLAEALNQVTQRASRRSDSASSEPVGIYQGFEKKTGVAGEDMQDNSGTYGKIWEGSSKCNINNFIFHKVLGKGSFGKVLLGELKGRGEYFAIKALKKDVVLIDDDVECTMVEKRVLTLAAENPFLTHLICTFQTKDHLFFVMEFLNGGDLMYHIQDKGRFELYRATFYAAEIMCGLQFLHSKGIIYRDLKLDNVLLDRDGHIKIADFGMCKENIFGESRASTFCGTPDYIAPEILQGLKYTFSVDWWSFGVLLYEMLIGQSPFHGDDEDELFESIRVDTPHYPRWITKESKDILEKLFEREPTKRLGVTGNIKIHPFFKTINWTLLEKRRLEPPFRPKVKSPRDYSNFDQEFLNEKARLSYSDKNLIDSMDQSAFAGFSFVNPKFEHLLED

[23] = biological target: SRC N1 (Homo sapiens, UniProt P12931); test: SelectScreen kinase profiling, SRC N1; format: biochemical; settings: read-out: Enzyme inhibitory activity IC50
[24] = biological target: SRC (Homo sapiens, UniProt P12931); test: SelectScreen kinase profiling, SRC; format: biochemical; settings: read-out: Enzyme inhibitory activity IC50
[25] = biological target: TYK2 (Homo sapiens, UniProt P29597); test: SelectScreen kinase profiling, TYK2; format: biochemical; settings: read-out: Enzyme inhibitory activity IC50
[26] = biological target: TGFBR2 (Homo sapiens, UniProt P37173); test: SelectScreen kinase profiling, TGFBR2; format: biochemical; settings: read-out: Enzyme inhibitory activity IC50

SMILES | IC50 [1] [µM] | IC50 [2] [µM] | IC50 [3] [µM] | IC50 [4] [µM] | IC50 [5] [µM] | IC50 [6] [µM] | IC50 [7] [µM] | IC50 [8] [µM] | IC50 [9] [µM] | IC50 [10] [µM] | IC50 [11] [µM] | IC50 [12] [µM] | IC50 [13] [µM] | IC50 [14] [µM] | IC50 [15] [µM] | IC50 [16] [µM] | IC50 [17] [µM] | IC50 [18] [µM] | IC50 [19] [µM] | IC50 [20] [µM] | other results
C[C@@H]1CCC(c2cc3c4c(cncc4c2)[C@@H](C)C3)=C1C=O [323-2, (15S,2R)-Delavatine A] | 11.6 | 5.25 | 9.25 | 1.22 | > 20 | > 20 | > 20 | > 20 | > 20 | > 20 | > 20 | > 20 | > 20 | > 20 | > 20 | > 20 | > 20 | > 20 | > 20 | > 20 | IC50 [21]: > 20 µM; IC50 [22]: > 20 µM; IC50 [23]: > 20 µM; IC50 [24]: > 20 µM; IC50 [25]: > 20 µM; IC50 [26]: > 20 µM
C[C@@H]1CCC(c2cc3c4c(cncc4c2)[C@H](C)C3)=C1C=O [323-1, (15R,2R)-Delavatine A] | 4.26 | 6.22 | 7.95 | 2.01 | > 20 | > 20 | > 20 | > 20 | > 20 | > 20 | > 20 | > 20 | > 20 | > 20 | > 20 | > 20 | > 20 | > 20 | > 20 | > 20 | IC50 [21]: > 20 µM; IC50 [22]: > 20 µM; IC50 [23]: > 20 µM; IC50 [24]: > 20 µM; IC50 [25]: > 20 µM; IC50 [26]: > 20 µM
